In patent US12486302B2, “Somatostatin receptor antagonist compounds and methods of using the same” (CDRD VENTURES INC., priority 2016, dated 2025):
Where a SMILES comes first, the peptide text is derived from it. Bridges are numbered along the chain shown (N, C = ends). [ ]: non-standard residue; d: D form. dPhe(4-CONH2) = NC(=O)c1ccc(C[C@@H](N)C(=O)O)cc1; Phe(4-Cl) = N[C@@H](Cc1ccc(Cl)cc1)C(=O)O; Lys(Me) = CNCCCC[C@H](N)C(=O)O

Legend:
[1] = target: SSTR1 (Homo sapiens, UniProt P30872); experiment: PathHunter β-Arrestin assay, antagonist mode, SSTR1; assay type: cell-based; conditions: agonist challenge at EC80
Description: (§1) The PathHunter® β-Arrestin assay monitors the activation of a GPCR in a homogenous, non-imaging assay format using a technology developed by DiscoveRx called Enzyme Fragment Complementation (EFC) with β-galactosidase (β-Gal) as the functional reporter. […] EA is fused to β-Arrestin and […] is fused to the GPCR of interest. When the GPCR is activated and β-Arrestin is recruited to the receptor, ED and EA complementation occurs, restoring β-Gal activity which is measured using chemiluminescent PathHunter® Detection Reagents. For antagonist determination, cells were pre-incubated with the compounds followed by agonist challenge at the EC80 concentration. Data was normalized to the maximal and minimal response observed in the presence of EC80 ligand and vehicle. Compound activity was analyzed using CBIS data analysis suite ChemInnovation, CA). Percentage inhibition was calculated using the following formula: % Inhibition=100%×(1−(mean signal of test sample-mean signal of vehicle control)/(mean signal of EC80 control-mean signal of vehicle control)). Percentage inhibition was calculated at 10 concentrations in steps on a Log 3 scale ranging from […] to 5e-5 μM. The results were plotted for IC50 calculation.

[2] = target: somatostatin type 2 (SSTR2) receptors (Homo sapiens, UniProt P30874); experiment: PathHunter β-Arrestin assay, antagonist mode, SSTR2; assay type: cell-based; conditions: agonist challenge at EC80
How it was run: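 Cells co-expressing PK-tagged human receptor and EA-β-Arrestin were pre-incubated with compound, then challenged with agonist at EC80. β-Gal complementation read by chemiluminescence; % inhibition normalized to EC80 and vehicle controls at 10 concentrations (log 3 steps from 1 μM down to 5e-5 μM), fitted for IC50.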

[3] = target: SSTR3 (Homo sapiens, UniProt P32745); experiment: PathHunter β-Arrestin assay, antagonist mode, SSTR3; assay type: cell-based; conditions: agonist challenge at EC80
Description: as §1

[4] = target: SSTR4 (Homo sapiens, UniProt P31391); experiment: PathHunter β-Arrestin assay, antagonist mode, SSTR4; assay type: cell-based; conditions: agonist challenge at EC80
Description: as §1

[5] = target: SSTR5 (Homo sapiens, UniProt P35346); experiment: PathHunter β-Arrestin assay, antagonist mode, SSTR5; assay type: cell-based; conditions: agonist challenge at EC80
Description: as §1

[6] = tested on: STZ diabetic Sprague Dawley rats; experiment: Hypoglycemic Challenge #1 (10 U/kg insulin) in STZ diabetic rats; assay type: in vivo, rat; conditions: for period after insulin with significantly higher BG values compared with Vehicle Control: 2-Way ANOVA, insulin 10 U/kg; for peak glucagon value: saphenous blood, 0 to 100 minutes after insulin dosing
Description: (§2) Male Sprague Dawley rats (initial weight 150-175 g) were purchased from Charles River Laboratories (Montreal, QC, Canada). Rats were housed in the York University Vivarium in a 12-hour light dark cycle. All animals were fed a standard rodent chow diet (14% fat, 54% carbohydrates, […] & 3.0 calories/g of food) and water ad libitum. After a minimum of one week of acclimation, all animals received an intraperitoneal injection of streptozotocin (STZ) (Sigma) at a dose of 65 mg/kg body weight. After STZ injection, animals were provided with sugar water (5% solution) overnight. Any animals whose blood glucose was not greater than 10 mM within 2 days of STZ injection received a second injection.
One week after induction of diabetes, insulin treatment was initiated to maintain blood glucose values within a reasonable glucose controlled range in the fasted state (8-20 mM). Insulin pellets (LinChin, Toronto, ON, Canada) were implanted subcutaneously in any rat with blood glucose over 20 mM. Briefly, animals were anesthetized via inhaled isoflurane and pellets were implanted subcutaneously within the scapular region. One week later animals underwent their first hypoglycemic challenge (Hypoglycemic Challenge #1), followed by a second hypoglycemic challenge (Hypoglycemic Challenge #2) the following week (see below). Throughout the study, daily animals checks were conducted to assess body weight, blood glucose as well as food/calorie consumption.
Animals were divided into groups and received Compound 4, or Compound 24 or a corresponding dose of vehicle. Compounds were given 1 hour prior to commencement of the hypoglycemic challenge. On the morning of the hypoglycemic challenge, food was removed from the cage and a plasma sample was collected as baseline (prior to compound/vehicle administration), one-hour post drug/vehicle administration and at set points throughout the challenges.
For Hypoglycemic Challenge #1, hypoglycemia was induced via subcutaneous administration of a bolus of insulin (10U Novo Rapid insulin/kg body weight). Blood glucose was assessed every 10 minutes via saphenous vein puncture. Additionally, plasma was collected from the saphenous vein every 20 minutes, until 100-minutes post insulin administration. An additional plasma sample was collected 4-hours post drug administration (3 hours post insulin bolus) for mass spectrometry analysis of the compounds in plasma.

[7] = tested on: STZ diabetic Sprague Dawley rats; experiment: Hypoglycemic Challenge #2 (20 U/kg insulin) in STZ diabetic rats; assay type: in vivo, rat; conditions: 20 U/kg insulin challenge; target BG 2.5 mM; N=9
Description: as §2
One week after induction of diabetes, insulin treatment was initiated to maintain blood glucose values within a reasonable glucose controlled range in the fasted state (8-20 mM). Insulin pellets (LinChin, Toronto, ON, Canada) were implanted subcutaneously in any rat with blood glucose over 20 mM. […]
One week after the first hypoglycemia challenge, a second similar hypoglycemic challenge (Hypoglycemia Challenge #2) was conducted; however this time a higher dose of insulin was given to insure that severe hypoglycemia developed (20U Novo Rapid/kg body weight). Blood glucose was monitored, every 5-10 min, via saphenous vein puncture. […]

Sequence of SSTR1 (P30872 whole entry, the tested form may be a part): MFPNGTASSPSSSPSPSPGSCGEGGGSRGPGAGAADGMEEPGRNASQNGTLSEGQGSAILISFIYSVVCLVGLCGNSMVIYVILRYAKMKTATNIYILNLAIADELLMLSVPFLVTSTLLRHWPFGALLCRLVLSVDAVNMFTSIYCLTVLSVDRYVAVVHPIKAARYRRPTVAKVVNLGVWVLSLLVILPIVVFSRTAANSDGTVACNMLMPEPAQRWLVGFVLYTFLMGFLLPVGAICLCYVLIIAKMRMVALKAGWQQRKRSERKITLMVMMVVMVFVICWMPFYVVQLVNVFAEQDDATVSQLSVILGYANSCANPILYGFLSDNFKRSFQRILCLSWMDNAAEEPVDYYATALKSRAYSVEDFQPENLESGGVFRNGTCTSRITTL
Sequence of SSTR4 (P31391 whole entry): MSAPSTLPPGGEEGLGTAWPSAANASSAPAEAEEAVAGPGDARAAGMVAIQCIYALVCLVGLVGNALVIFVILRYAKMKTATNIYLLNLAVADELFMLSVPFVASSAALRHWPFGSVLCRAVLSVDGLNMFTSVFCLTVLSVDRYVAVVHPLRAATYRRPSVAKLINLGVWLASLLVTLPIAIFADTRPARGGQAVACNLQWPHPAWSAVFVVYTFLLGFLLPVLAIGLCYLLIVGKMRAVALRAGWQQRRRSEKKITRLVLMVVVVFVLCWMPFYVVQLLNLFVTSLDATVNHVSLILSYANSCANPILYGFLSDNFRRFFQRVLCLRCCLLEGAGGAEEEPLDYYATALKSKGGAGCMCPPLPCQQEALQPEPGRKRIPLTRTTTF
Sequence of somatostatin type 2 (SSTR2) receptors (P30874 whole entry): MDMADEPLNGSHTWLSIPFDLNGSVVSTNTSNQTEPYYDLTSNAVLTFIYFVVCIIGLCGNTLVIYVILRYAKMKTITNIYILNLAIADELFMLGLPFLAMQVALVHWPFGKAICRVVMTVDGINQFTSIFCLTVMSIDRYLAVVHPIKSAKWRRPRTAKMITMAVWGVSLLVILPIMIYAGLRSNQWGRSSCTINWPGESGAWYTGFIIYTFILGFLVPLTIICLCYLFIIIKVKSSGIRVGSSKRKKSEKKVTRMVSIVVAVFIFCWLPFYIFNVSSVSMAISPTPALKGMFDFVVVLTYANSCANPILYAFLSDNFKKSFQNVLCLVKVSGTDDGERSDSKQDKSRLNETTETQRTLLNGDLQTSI
Sequence of SSTR5 (P35346 whole entry): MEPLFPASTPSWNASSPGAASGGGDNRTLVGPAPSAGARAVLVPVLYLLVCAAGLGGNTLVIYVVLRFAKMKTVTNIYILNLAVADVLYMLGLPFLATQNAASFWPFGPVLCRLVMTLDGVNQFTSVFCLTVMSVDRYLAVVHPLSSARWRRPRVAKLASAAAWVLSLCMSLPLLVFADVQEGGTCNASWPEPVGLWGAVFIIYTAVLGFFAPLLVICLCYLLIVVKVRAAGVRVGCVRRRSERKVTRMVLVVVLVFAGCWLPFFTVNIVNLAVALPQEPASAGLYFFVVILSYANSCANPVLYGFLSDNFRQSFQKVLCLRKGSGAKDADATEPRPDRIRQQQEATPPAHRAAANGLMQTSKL
Sequence of SSTR3 (P32745 whole entry): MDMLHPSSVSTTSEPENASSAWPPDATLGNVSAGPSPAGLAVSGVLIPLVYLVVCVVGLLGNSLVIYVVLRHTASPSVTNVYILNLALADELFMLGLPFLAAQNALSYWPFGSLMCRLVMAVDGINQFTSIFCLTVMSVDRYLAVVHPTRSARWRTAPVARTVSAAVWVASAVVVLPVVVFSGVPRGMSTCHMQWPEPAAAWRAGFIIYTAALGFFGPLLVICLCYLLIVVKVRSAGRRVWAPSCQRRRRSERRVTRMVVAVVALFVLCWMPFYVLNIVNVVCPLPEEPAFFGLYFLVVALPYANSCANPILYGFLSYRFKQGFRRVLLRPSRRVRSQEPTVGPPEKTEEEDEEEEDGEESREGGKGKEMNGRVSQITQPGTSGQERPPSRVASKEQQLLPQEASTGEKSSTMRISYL

IC50 [1] [nM] | IC50 [2] [nM] | IC50 [3] [nM] | IC50 [4] [nM] | IC50 [5] [nM] | SMILES | period after insulin with significantly higher BG values compared with Vehicle Control ([6]; N=9) [min] | incidence of severe hypoglycemia (BG threshold 1.9 mM) ([6]; after 130 minutes) [%] | peak glucagon value ([6]; N=9) [pg/mL] | average portal blood glucagon concentration at hypoglycemia [7] [pg/mL] | time at which rats first became hypoglycemic (BG threshold 3.9 mM) ([6]; 2 of 9 rats, after insulin 10 U/kg) [min] | average time to onset of hypoglycemia (BG first reached 3.9 mM) ([6]; after 10 U/kg insulin dose, interpolated from BG curves, N=9) [min] | incidence of severe hypoglycemia (BG threshold 1.9 mM) ([6]; after 150 minutes) [%] | AUC of blood glucose below the 3.9 mM threshold (extent of hypoglycemia) ([6]; compound at t=-60 min, insulin 10 U/kg at t=0, N=9) [mM·min] | number of rats that never became hypoglycemic ([6]; of 9 rats, BG threshold 3.9 mM)
> 1000 | 17 | > 1000 | > 1000 | > 1000 | C[C@@H](O)[C@@H]1NC(=O)[C@H](CCCCN)NC(=O)[C@@H](Cc2ccc(C(N)=O)cc2)NC(=O)[C@H](Cc2ccc(O)cc2)NC(=O)[C@H](NC(=O)[C@@H](N)Cc2ccc(Cl)cc2)CSSC[C@@H](C(=O)N[C@H](Cc2ccc(O)cc2)C(N)=O)NC1=O [Compound 4, H-Cpa-cyclo[D-Cys-Tyr-D-Phe(4-carbamoyl)-Lys-Thr-Cys]-D-Tyr-NH2] | 20 | 33 | 180 | 462 | – | – | – | – | –
> 1000 | 0.96 | > 1000 | > 1000 | > 1000 | CNCCCC[C@@H]1NC(=O)[C@@H](Cc2ccc(C(N)=O)cc2)NC(=O)[C@H](Cc2ccc(O)cc2)NC(=O)[C@H](NC(=O)[C@@H](N)Cc2ccc(Cl)cc2)CSSC[C@@H](C(=O)N[C@H](Cc2ccc(O)cc2)C(N)=O)NC(=O)[C@H]([C@@H](C)O)NC1=O [Compound 24, H-Cpa-cyclo[D-Cys-Tyr-D-Phe(4-carbamoyl)-Lys(N^ε-Me)-Thr-Cys]-D-Tyr-NH2] (H-[Phe(4-Cl)][dC]Y[dPhe(4-CONH2)][Lys(Me)]TC[dY]-NH2; disulfide 2-7) | 40 | – | 175 | 801 | 40 | 97 | 44 | 55 | 1
